Assay results published in patent US3959283A, “Amino-derivatives of 1,4-benzodioxan” (Laboratoire L. Lafon, priority 1974, dated 1976).
Structures can show the parent of a compound that is named as a salt.

What was measured:
[1] = system: acetylcholine; assay: Effect on the amines and reflexes: acetylcholine; conditions: in vivo
Text: (§1) In Table III below, the effects of the products on the amines and the reflexes have been summarised.

[2] = system: adrenergic receptors; assay: Inhibition/reversal of tension effects of adrenalin, intravenous (products of Examples 11 to 13); type: in vivo; conditions: i.v.
Experimental: the doses of CRL 40,150 from 0.5 to 4 mg/kg being administered successively.

[3] = system: reflex relating to occlusion of the carotids; assay: Effect on the amines and reflexes: occlusion of the carotids; conditions: in vivo
Text: as §1

[4] = system: dogs; assay: Hypotensive effect in dogs anaesthetised with Nembutal; type: in vivo
Text: This hypotension manifests itself especially in a decrease in the differential pressure, the lowering of the diastolic pressure being greater than that of the systolic pressure.

[5] = system: peripheral vagus; assay: Effect on the amines and reflexes: stimulation of the peripheral vagus; conditions: in vivo
Text: as §1

[6] = system: adrenergic receptors; assay: Tension effects of adrenalin after intraduodenal product of Example 11; type: in vivo, dogs; conditions: Experiment A
Text: (§2) The product was investigated by intraduodenal administration to dogs anaesthetised with Nembutal, in four experiments, A B C and D.

[7] = system: dogs; assay: Intraduodenal administration to dogs anaesthetised with Nembutal (product of Example 11), Experiments A to D; type: in vivo
Experimental: Complementary experiments carried out on anaesthetised dogs have been given below for the product of Example 11 administered intraduodenally (ID).
as §2
The arterial pressure is not altered. The pulse rate increases by at most 20% after 15 minutes and then decreases slowly (+ 14% after 30 minutes).
After 1 hour, the femoral flow rate has still been increased by 100% (from 36 to 72 ml/minute).
The α-receptors of the animal are already blocked. […] The vertebral flow rate is 20 ml/minute.
15 hr. […] 15 hr. […] 16 hr. […] 16 hr. 23 min. Propanolol: 0.3 mg/kg administered intravenously. […] The arterial pressure increases by approximately 10%. […] The pulse rate increases by 20 to 33%. […] The femoral flow rate is increased by only 25%.

[8] = Acute intravenous toxicity in mice, products of Examples 10 to 13 (LD50); conditions: mouse, in vivo, i.v., group of male and female mice
Text: (a) determined on a group of male and female mice,
(b) determined on a group consisting solely of female mice.

[9] = system: central vagus; assay: Effect on the amines and reflexes: stimulation of the central vagus; conditions: in vivo
Text: as §1

[10] = system: adrenalin; assay: Effect on the amines and reflexes: adrenalin; conditions: in vivo
Text: as §1

[11] = Experiment A, 15 and 30 mg/kg ID
[12] = Experiment B, second administration 30 mg/kg ID, after 1 hour
[13] = Experiment B, second administration 30 mg/kg ID, after 2 hours
[14] = Experiment B, third administration 30 mg/kg ID
[15] = Experiment D, second 15 mg/kg ID

Question: Which results are given for `COc1cc(OC)cc(OCCN2CCN(CC3COc4ccccc4O3)CC2)c1` (centres unmarked) [Example 11, 1-[2-(1,4-Benzodioxanyl)-methyl]-4-[2-(3,5-dimethoxyphenoxy)-ethyl]-piperazine dihydrochloride]?
Answer: Effect on the amines and reflexes: acetylcholine [1]: no change; dose from which tension effects of adrenalin are inhibited and then reversed [2]: ≥ 0.37 mg/kg; Effect on the amines and reflexes: reflex relating to occlusion of the carotids [3]: reduced; hypotension [4]: 40%; Effect on the amines and reflexes: stimulation of the peripheral vagus [5]: not changed; tension effects of adrenalin ([6]; 5 minutes after the first dose (15 mg/kg ID)): reversed; passage through the intestinal barrier ([6]; ID): passed through the intestinal barrier; arterial pressure [7, 11]: not altered; effect on the femoral flow rate [7, 11]: no effect; effect on the vertebral flow rate [7, 11]: no effect; increase in pulse rate ([7]; Experiment A, after 15 minutes): at most 20%; increase in pulse rate ([7]; Experiment A, after 30 minutes): 14%; increase in femoral flow rate ([7]; Experiment B, 15 mg/kg ID, 5 minutes): 134%; increase in femoral flow rate ([7]; Experiment B, 15 mg/kg ID, 15 minutes): 194%; increase in femoral flow rate ([7]; Experiment B, 15 mg/kg ID, 1 hour): 100%; femoral flow rate ([7]; Experiment B, 15 mg/kg ID, 1 hour, from 36): 72 mL/min; increase in differential arterial pressure ([7]; Experiment B, ID): 30%; increase in the pulse rate ([7]; Experiment B, ID): ≤ 30%; decrease in average arterial pressure ([7]; Experiment B, ID, at most): ≤ 18%; average arterial pressure ([7]; Experiment B, ID, lowest, from 165): 135 mm Hg; femoral flow rate [7, 12]: 104 mL/min; increase in femoral flow rate [7, 12]: 184%; femoral flow rate [7, 13]: 92 mL/min; increase in femoral flow rate [7, 13]: 156%; change in femoral flow rate ([7]; Experiment B, second administration 30 mg/kg ID, first 45 minutes): does not change the flow rate further; femoral flow rate [7, 14]: 108 mL/min; increase in femoral flow rate [7, 14]: 200%; effect on the femoral flow rate ([7]; Experiment C, 15 mg/kg ID): zero; increase in vertebral flow rate ([7]; Experiment C, 15 mg/kg ID, after 60 minutes): 35%; vertebral flow rate ([7]; Experiment C, 15 mg/kg ID, after 60 minutes, from 20): 27 mL/min; average pressure ([7]; Experiment D, 15 mg/kg ID): remaining constant; differential pressure ([7]; Experiment D, 15 mg/kg ID): large increase in the differential pressure; increase in arterial pressure ([7]; Experiment D, 15 mg/kg ID): approximately 10%; increase in femoral flow rate ([7]; Experiment D, 15 mg/kg ID, 10 minutes): 170%; femoral flow rate ([7]; Experiment D, 15 mg/kg ID, 10 minutes, from 48): 130 mL/min; increase in femoral flow rate ([7]; Experiment D, 15 mg/kg ID, 30 minutes): 100%; increase in femoral flow rate ([7]; Experiment D, 15 mg/kg ID, 75 minutes): 50%; increase in vertebral flow rate ([7]; Experiment D, 15 mg/kg ID, first administration, at most): ≤ 16%; increase in femoral flow rate [7, 15]: 25%; vertebral flow rate [7, 15]: 70 mL/min; increase in vertebral flow rate ([7]; Experiment D, second 15 mg/kg ID, after 15 minutes): 94%; LD50 [8]: 60 mg/kg; Effect on the amines and reflexes: stimulation of the central vagus [9]: not changed; Effect on the amines and reflexes: adrenalin [10]: reversal
